{"source": "patent US20120289472A1", "about": "“MOLECULES CAPABLE OF INDUCING CELL DEATH BY TARGETING THE MITOCHONDRIA AND APPLICATIONS THEREOF” (priority 2009, published 2012)", "key": {"[1]": {"test_system": "MEF-DKO murine fibroblasts", "assay": "Apoptosis of wild-type MEF and Bax/Bak-deficient MEF-DKO fibroblasts (Annexin V-Cy3, flow cytometry)", "format": "cell-based", "excerpt": "The graph (FIG. 6A) corresponds to a time course of cell death (quantified by flow cytometry by means of the Annexin V-Cy3 test) of MEF wild-type murine fibro-blasts compared with MEF-DKO murine fibroblasts."}, "HT-1080 cells": {"test_system": "HT-1080 cells", "assay": "Cell death of HT-1080 cells expressing GFP fused to Bax membrane insertion fragments", "format": "cell-based, human", "settings": "zVAD.fmk 100 μM", "method": "The various constructs were transfected into human cells cultured in vitro (HT-1080 and SK-MEL-28), and then the subcellular localization and the cytotoxicity induced by the Bax membrane insertion fragments fused to GFP were determined.\nFIG. 5A gives the death rate (apoptosis/necrosis) of HT-1080 cells expressing GFP alone or as a fusion with various membrane insertion fragments of the Bax death protein. The cells were treated (+) or not (−) with the general caspase inhibitor zVAD.fmk (100 μM). Cell death was quantified 24 h after transfection by counting the number of green cells (expressing GFP) under an epifluorescence microscope. The type of cell death (apoptosis and necrosis) was determined through the membrane permeability to propidium iodide (necrosis) and the nuclear morphology (condensed or fragmented nuclei) after staining with Hoechst 33342 (apoptosis). […] The results represent the mean values (with the standard deviations) of the three experiments.\nIn this experiment, the cell death was quantified using the Annexin-V-Cyanine 3 test by flow cytometry 24 h after transient transfection of the cells with the plasmids of interest."}, "HeLa cells [2]": {"test_system": "HeLa cells", "assay": "Cytotoxicity in HeLa cells by LDH release", "format": "cell-based", "method": "(A) HeLa cells were incubated for 6 h in the presence of 10 μM of poropeptide FITC-R8-Bax or of control peptide R8-Bax [Scr] (“scramble” version of the poropeptide), and then observed under an epifluorescence microscope. […] Scale 10 μm. […] HeLa cells were treated with increasing concentrations (5, 10, 25 and 50 μM) of peptide […] or […]. The cytotoxicity was determined by measuring the cellular release of lactate dehydrogenase (LDH) after 3, 6 or 24 h of incubation (n=4). […] The results are given in means and standard deviations. […] (25 μM). The cytotoxicity was determined by measuring the cellular release of lactate dehydrogenase (LDH) after 3, 6 or 24 h of incubation in the presence of 100 μM of zVAD.fmk or of buffer alone (‘DMSO’). The results are given as means and standard deviations. (D) Death rate (apoptosis/necrosis) of HeLa cells treated with poropeptide R8-Bax. The type of cell death was determined 24 h after transfection by observation of cell permeability to propidium iodide (necrosis) or of nuclear morphology after DNA staining with Hoechst 33342 (apoptosis). The green cells (expressing GFP) were visualized by epifluorescence microscopy. Approximately 300 cells were counted per experiment. The results are a mean of three independent experiments (the standard deviation is also represented)."}, "isolated mitochondria": {"test_system": "isolated mitochondria", "assay": "Cytochrome c release from isolated mitochondria (Western blotting of supernatant)", "format": "biochemical", "settings": "for incubation time at which cytochrome c is released: 10 μM", "method": "The ex cellulo activity of poropeptide-Bax (106-134) was tested by determining its ability to promote the release of cytochrome c from the intermembrane space of isolated mitochondria. The results obtained are shown by FIG. 9 (A).\nThe peptide is incubated with the mitochondria for 5, 15, 30 or 60 min, and the mitochondrial release of cytochrome c into the supernatant (SN) is measured by Western blotting. The mitochondrial fractions (Mito) are calibrated using an antibody directed against the HSP70 or ATPase (subunit 6) mitochondrial proteins. With poropeptide-Bax (106-134), cytochrome c is released from the intermembrane space of the mitochondrion at 10 μM and in 5 min of incubation. No release is observed when an artificial antimicrobial peptide (KLAK) of sequence SEQ ID No. 2 KLAKLAKKLAKLAK is used."}, "[3]": {"test_system": "mitochondria isolated from rat liver", "assay": "Swelling and depolarization of mitochondria isolated from rat liver", "format": "biochemical", "method": "Poropeptide-Bax (106-134) induces swelling of the mitochondria (DD50=1.68±0.39 μM) and a drop in their transmembrane potential (SD50=3.98±0.57 μM). These two parameters were measured using mitochondria isolated from rat liver, incubated in the presence of various concentrations of poropeptide-Bax (106-134) (NT=not treated)."}, "Zebrafish eggs": {"test_system": "Zebrafish eggs", "assay": "Microinjection into zebrafish eggs (mortality, malformations)", "format": "in vivo, Danio rerio", "excerpt": "Poropeptide-Bax was microinjected in vivo. The zebrafish (Danio rerio) model was used because (i) the apoptotic machinery is conserved between human cells and fish cells; (ii) the egg corresponds to an integrated cell system compared with isolated mitochondria; (iii) zebrafish eggs can be easily injected routinely.\n(A) Zebrafish eggs were microinjected at the 1-2 cell(s) stage with increasing concentrations of poro-peptide-Bax, of Bax-BH3 peptide or with ultrapure water ('mock'). A concentration of 100 μM inside the microinjection capillary corresponds to approximately […] molecules of peptide per egg. […] The data shown are representative of 2 independent experiments giving the same results. (B) Embryonic morphology 24 h after microinjection (100 μM of peptide)."}, "[4]": {"test_system": "SK-MEL-28 human melanoma cells", "assay": "Cell viability after microinjection into SK-MEL-28 melanoma cells", "format": "cell-based", "settings": "SK-MEL-28, 12 h after microinjection; for cell death / viability after microinjection: versus control", "method": "Poropeptide-Bax was then mixed with a solution of dextran-fluorescein (so as to allow its visualization by epifluorescence microscopy), and then microinjected into SK-MEL-28 human melanoma cells. Cell viability was then monitored and quantified 12 hours after microinjection.\n(A) Micrographs showing SK-MEL-28 human melanoma cells injected with Dextran-FITC fluorescent tracer alone (‘mock’) or mixed with poropeptide-Bax. The cells were photographed 12 h after microinjection. […] Magnification×800. (B) Cell viability after microinjection of poropeptide-Bax or of Bax-BH3, KLAK or R8 peptide. The cells microinjected were visualized by means of the Dextran-FITC tracer. […] The data shown are representative of 2 independent experiments giving the same results."}, "HeLa cells [5]": {"test_system": "HeLa cells", "assay": "Internalization of fluorescent peptides by HeLa cells (epifluorescence microscopy)", "format": "cell-based", "method": "The poropeptide of sequence SEQ ID No. 1, comprising a polyarginine N-terminal extension (R8) separated by a glycine residue, was used. A fluorescein isothiocyanate (FITC) group was added in the C-terminal position so as to allow its visualization by epifluorescence microscopy. The R8-Scr-FITC peptide is a “scramble” sequence of the sequence present in the R8-Bax [106-134]-FITC peptide, i.e. a control sequence in which the amino acids (their order in the sequence) have been mixed-up.\n(A) HeLa cells were incubated for 6 h in the presence of 10 μM of poropeptide FITC-R8-Bax or of control peptide R8-Bax [Scr] (“scramble” version of the poropeptide), and then observed under an epifluorescence microscope. […] Scale 10 μm. […] The cytotoxicity was determined by measuring the cellular release of lactate dehydrogenase (LDH) after 3, 6 or 24 h of incubation (n=4). […] The cytotoxicity was determined by measuring the cellular release of lactate dehydrogenase (LDH) after 3, 6 or 24 h of incubation in the presence of 100 μM of zVAD.fmk or of buffer alone (‘DMSO’). […] The type of cell death was determined 24 h after transfection by observation of cell permeability to propidium iodide (necrosis) or of nuclear morphology after DNA staining with Hoechst 33342 (apoptosis). […] Approximately 300 cells were counted per experiment. […]"}}, "note": "Read-outs that look alike come from different tables or passages of the source. Where a SMILES comes first, the peptide text is derived from it. Where no end group is shown, it is not given here. The star is where a group is joined. Cbz = O=C(OCc1ccccc1)*; CH2F = FC*"}
{"compound": "CN[C@@H]1C[C@H]2O[C@@](C)([C@@H]1OC)n1c3ccccc3c3c4c(c5c6ccccc6n2c5c31)C(=O)NC4", "note": "[staurosporine]", "values": [{"measurement": "apoptosis induced in MEF-DKO cells", "setting": "[1]", "value": "resistant"}]}
{"compound": "COC(=O)C[C@H](NC(=O)[C@H](C)NC(=O)[C@@H](NC(=O)OCc1ccccc1)C(C)C)C(=O)CF", "note": "[zVAD.fmk, reference compound] (Cbz-Val-Ala-Asp(OMe)-CH2F)", "values": [{"measurement": "effect of caspase inhibitor on apoptosis caused by Bax membrane insertion fragments", "setting": "HT-1080 cells", "value": "blocking of the apoptosis"}, {"measurement": "effect of caspase inhibitor on cell death induced by poropeptide R8-Bax [106-134] (LDH release)", "setting": "HeLa cells [2]; HeLa, zVAD.fmk 100 μM, poropeptide 25 μM, 3, 6 or 24 h", "value": "reduces cell death"}]}
{"compound": "H-NWGRVVALFYFASKLVLKALSTKVPELIR-OH [poropeptide-Bax (106-134)]", "values": [{"measurement": "minimum concentration for which cytochrome c release is observed", "setting": "isolated mitochondria", "value": 10, "unit": "µM"}, {"measurement": "incubation time at which cytochrome c is released", "setting": "isolated mitochondria", "value": 5, "unit": "min"}, {"measurement": "incubation time at which cytochrome c is released", "setting": "isolated mitochondria; listed as Poropeptide-Bax (106-134)", "value": "≤ 5", "unit": "min"}, {"measurement": "EC50", "setting": "[3]; read-out: drop in transmembrane potential (SD50)", "value": "3980 ± 570", "unit": "nM"}, {"measurement": "EC50", "setting": "[3]; read-out: swelling of the mitochondria (DD50)", "value": "1680 ± 390", "unit": "nM"}, {"measurement": "embryonic morphology", "setting": "Zebrafish eggs; 24 h after microinjection, 100 μM of peptide, compared with BH3 peptide group", "value": "Severe malformations"}, {"measurement": "cytotoxic effects after introduction into zebrafish eggs", "setting": "Zebrafish eggs; increasing concentrations, microinjection at 1-2 cell stage", "value": "dose-dependent cytotoxic effects"}, {"measurement": "cell morphology after microinjection", "setting": "[4]", "value": "characteristic morphological manifestations of apoptosis"}, {"measurement": "cell death / viability after microinjection", "setting": "[4]", "value": "substantial cell death"}]}
{"compound": "KLAKLAKKLAKLAK [artificial antimicrobial peptide, reference compound]", "values": [{"measurement": "cytochrome c release from intermembrane space", "setting": "isolated mitochondria; incubation 5-60 min", "value": "No release"}, {"measurement": "cell death / viability after microinjection", "setting": "[4]", "value": "no significant effect"}]}
{"compound": "R8-Bax [106-134]: poropeptide of SEQ ID No. 1 with polyarginine N-terminal extension (R8) separated by a glycine residue, FITC group added (RRRRRRRRGNWGRVVALFYFASKLVLKALCTKVPELIR; also: FITC group added, position not given here; UniProt Q07812 106-134, looked up, fragment)", "values": [{"measurement": "time to internalization", "setting": "HeLa cells [5]; HeLa cells in culture in vitro", "value": "in less than one hour"}, {"measurement": "cytoplasmic labeling of cells", "setting": "HeLa cells [5]; HeLa, 10 μM, 6 h", "value": "strong cytoplasmic labeling"}, {"measurement": "cytotoxicity by cellular release of lactate dehydrogenase (LDH)", "setting": "HeLa cells [2]; HeLa, 5, 10, 25 and 50 μM, 3, 6 or 24 h", "value": "loss of cell viability which is dose-dependent and incubation time-dependent"}]}
{"compound": "RRRRRRRR [R8, control peptide, a polyarginine intracellular transduction motif, reference compound]", "values": [{"measurement": "cell death / viability after microinjection", "setting": "[4]", "value": "viability rates comparable to the control"}]}
